Experimental data reported in the supplement of paper PMC10307832.

Assays:
Assay in all cases: relative viability (nuclei count vs DMSO), 5 days (fraction); higher = more cells survive
FG-4592 + Palbociclib = compound: Cc1nc(C(=O)NCC(=O)O)c(O)c2ccc(Oc3ccccc3)cc12 [FG-4592] + CC(=O)c1c(C)c2cnc(Nc3ccc(N4CCNCC4)cn3)nc2n(C2CCCC2)c1=O [Palbociclib] (partner 0.5 µM)
Outline: (§1)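 Five library-drug doses in √10 steps were combined with a fixed anchor-drug dose, or a single drug was given alone, by pin tool to lung cancer cell lines in 1536-well plates the day after seeding. Nuclei were stained and counted after 5 days. Relative viability is the nuclei count in treated wells over that in vehicle wells, taken as the median of duplicate plates.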

FG-4592 + Lapatinib = compound: Cc1nc(C(=O)NCC(=O)O)c(O)c2ccc(Oc3ccccc3)cc12 [FG-4592] + CS(=O)(=O)CCNCc1ccc(-c2ccc3ncnc(Nc4ccc(OCc5cccc(F)c5)c(Cl)c4)c3c2)o1 [Lapatinib] (partner 2 µM)
Outline: as §1

IU1-47 + Olaparib = compound: CC1=CC(=C(N1C2=CC=C(C=C2)Cl)C)C(=O)CN3CCCCC3 [IU1-47] + O=C(c1cc(Cc2n[nH]c(=O)c3ccccc23)ccc1F)N1CCN(C(=O)C2CC2)CC1 [Olaparib] (partner 8 µM)
Outline: as §1

FG-4592 + Navitoclax = compound: Cc1nc(C(=O)NCC(=O)O)c(O)c2ccc(Oc3ccccc3)cc12 [FG-4592] + CC1(C)CCC(c2ccc(Cl)cc2)=C(CN2CCN(c3ccc(C(=O)NS(=O)(=O)c4ccc(N[C@H](CCN5CCOCC5)CSc5ccccc5)c(S(=O)(=O)C(F)(F)F)c4)cc3)CC2)C1 [Navitoclax] (partner 0.5 µM)
Outline: as §1

## UMC-11
FG-4592 + Palbociclib; first compound 0.08 µM
  relative viability: 0.306
FG-4592 + Palbociclib; first compound 0.253 µM
  relative viability: 0.309
FG-4592 + Palbociclib; first compound 0.8 µM
  relative viability: 0.32
FG-4592 + Palbociclib; first compound 2.53 µM
  relative viability: 0.331
FG-4592 + Palbociclib; first compound 8 µM
  relative viability: 0.285
FG-4592 + Lapatinib; first compound 0.08 µM
  relative viability: 0.948
FG-4592 + Lapatinib; first compound 0.253 µM
  relative viability: 0.955
FG-4592 + Lapatinib; first compound 0.8 µM
  relative viability: 0.8
FG-4592 + Lapatinib; first compound 2.53 µM
  relative viability: 0.936
FG-4592 + Lapatinib; first compound 8 µM
  relative viability: 0.822
IU1-47 + Olaparib; first compound 0.08 µM
  relative viability: 0.402
IU1-47 + Olaparib; first compound 0.253 µM
  relative viability: 0.429
IU1-47 + Olaparib; first compound 0.8 µM
  relative viability: 0.368
IU1-47 + Olaparib; first compound 2.53 µM
  relative viability: 0.328
IU1-47 + Olaparib; first compound 8 µM
  relative viability: 0.373
FG-4592 + Navitoclax; first compound 0.08 µM
  relative viability: 0.391
FG-4592 + Navitoclax; first compound 0.253 µM
  relative viability: 0.321
FG-4592 + Navitoclax; first compound 0.8 µM
  relative viability: 0.29
FG-4592 + Navitoclax; first compound 2.53 µM
  relative viability: 0.312
FG-4592 + Navitoclax; first compound 8 µM
  relative viability: 0.274
